From patent US20070282007A1, “TREATMENT OF PAIN DISORDERS WITH trans 4-(3,4-DICHLOROPHENYL)-1,2,3,4-TETRAHYDRO-1-NAPHTHALENAMINE AND ITS FORMAMIDE” (SEPRACOR INC., priority 2006, published 2007)

Tests used:
[1] = molecular target: D1 (Homo sapiens, UniProt P21728); test: In vitro radioligand binding assay, D1
[2] = molecular target: M2 (Homo sapiens, UniProt P08172); test: In vitro radioligand binding assay, M2
[3] = molecular target: T1, M5 (Homo sapiens, UniProt P08912); test: In vitro radioligand binding assay, M5; details: read-out: Ki, M5
T1 sequence (P08912 1-532): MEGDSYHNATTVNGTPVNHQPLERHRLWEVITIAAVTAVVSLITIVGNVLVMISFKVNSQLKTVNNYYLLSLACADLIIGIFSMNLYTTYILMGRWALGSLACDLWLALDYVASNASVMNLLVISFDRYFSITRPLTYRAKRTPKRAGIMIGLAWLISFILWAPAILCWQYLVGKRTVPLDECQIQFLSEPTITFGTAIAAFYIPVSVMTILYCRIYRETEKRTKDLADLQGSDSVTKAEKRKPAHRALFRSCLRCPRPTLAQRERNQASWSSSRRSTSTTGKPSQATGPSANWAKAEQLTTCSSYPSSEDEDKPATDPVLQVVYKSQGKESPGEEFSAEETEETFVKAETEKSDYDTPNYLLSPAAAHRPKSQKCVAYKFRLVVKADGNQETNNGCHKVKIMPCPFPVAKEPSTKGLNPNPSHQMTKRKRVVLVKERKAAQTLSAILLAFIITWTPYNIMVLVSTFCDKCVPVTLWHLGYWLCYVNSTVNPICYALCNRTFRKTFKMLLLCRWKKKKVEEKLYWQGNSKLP

[4] = molecular target: T2, 5-HT1A (Homo sapiens, UniProt P08908); test: In vitro radioligand binding assay, 5-HT1A
T2 sequence (P08908 1-422): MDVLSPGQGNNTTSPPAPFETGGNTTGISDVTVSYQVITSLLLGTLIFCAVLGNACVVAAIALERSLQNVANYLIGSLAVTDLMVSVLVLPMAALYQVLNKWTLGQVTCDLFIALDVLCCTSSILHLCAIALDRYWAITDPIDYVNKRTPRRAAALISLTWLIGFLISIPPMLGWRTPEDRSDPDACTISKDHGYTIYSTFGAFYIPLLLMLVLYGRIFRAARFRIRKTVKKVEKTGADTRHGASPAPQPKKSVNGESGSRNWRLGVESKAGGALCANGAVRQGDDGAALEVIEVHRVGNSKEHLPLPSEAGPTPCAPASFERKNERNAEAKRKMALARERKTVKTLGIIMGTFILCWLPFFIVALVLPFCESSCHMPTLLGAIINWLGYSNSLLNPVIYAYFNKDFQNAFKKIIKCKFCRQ

[5] = molecular target: 5-HT1B (Homo sapiens, UniProt P28222); test: In vitro radioligand binding assay, 5-HT1B
Sequence of 5-HT1B (P28222 whole entry, species assumed): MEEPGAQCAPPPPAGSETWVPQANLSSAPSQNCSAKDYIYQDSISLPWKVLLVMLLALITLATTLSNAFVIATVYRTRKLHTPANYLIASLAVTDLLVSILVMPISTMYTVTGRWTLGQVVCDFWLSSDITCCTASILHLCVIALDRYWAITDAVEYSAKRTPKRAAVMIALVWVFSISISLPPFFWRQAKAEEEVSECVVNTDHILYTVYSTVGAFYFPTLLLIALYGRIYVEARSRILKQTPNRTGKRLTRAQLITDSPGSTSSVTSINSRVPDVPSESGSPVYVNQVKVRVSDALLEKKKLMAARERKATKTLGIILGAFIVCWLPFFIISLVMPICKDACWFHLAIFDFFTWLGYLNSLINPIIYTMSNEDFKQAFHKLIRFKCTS

[6] = molecular target: 5-HT2C (Homo sapiens, UniProt P28335); test: In vitro radioligand binding assay, 5-HT2C
Sequence of 5-HT2C (P28335 33-458, species assumed): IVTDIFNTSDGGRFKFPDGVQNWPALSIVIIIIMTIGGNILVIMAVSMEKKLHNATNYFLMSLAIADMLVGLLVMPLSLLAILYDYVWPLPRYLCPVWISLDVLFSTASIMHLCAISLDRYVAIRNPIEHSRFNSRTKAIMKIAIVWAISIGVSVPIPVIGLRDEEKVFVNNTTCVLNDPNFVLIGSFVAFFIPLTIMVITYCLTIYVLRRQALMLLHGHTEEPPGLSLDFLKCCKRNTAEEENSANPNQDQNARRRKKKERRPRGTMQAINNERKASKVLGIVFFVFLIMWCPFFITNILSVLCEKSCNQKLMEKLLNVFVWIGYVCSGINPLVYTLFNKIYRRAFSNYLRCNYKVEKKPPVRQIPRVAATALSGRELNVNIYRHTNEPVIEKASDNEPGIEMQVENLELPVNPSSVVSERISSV

[7] = test system: Long-Evans derived rats; test: Porsolt forced swim test; type: in vivo, rat; details: for Mean Immobility Time (% of Total) ± SEM, Day 2 Study: 3 administrations
Method: Performance in the Porsolt forced swim test was evaluated for sertraline and Compound P following protocols outlined in Porsolt R. D., et al., Arch. Int. Pharmacodyn., 229: 327 ([…]).
The Porsolt forced swim test is a model of “behavioral despair”, which has been used as an in vivo model for assessing potential antidepressant-like activity. Both test articles were dissolved in physiological saline (vehicle) and administered intraperitoneally. […] Long-Evans derived rats were used.

[8] = test system: Long-Evans derived rats; test: Spontaneous locomotor activity study; type: in vivo, rat; details: mean ± SEM
Method: The effects on locomotor activity were studied in Long-Evans derived rats following protocol outlined in Dews P., Br. J. Pharmacol., 8: 46 (1953).
This effect was still evident 2 hours following drug administration. On the basis of these studies, CNS effects and long duration of action may be anticipated at sufficient clinical doses.

[9] = molecular target: hERG channel (Homo sapiens, UniProt Q12809); test: hERG channel current in stably transfected HEK293 cells
Sequence of hERG channel (Q12809 whole entry): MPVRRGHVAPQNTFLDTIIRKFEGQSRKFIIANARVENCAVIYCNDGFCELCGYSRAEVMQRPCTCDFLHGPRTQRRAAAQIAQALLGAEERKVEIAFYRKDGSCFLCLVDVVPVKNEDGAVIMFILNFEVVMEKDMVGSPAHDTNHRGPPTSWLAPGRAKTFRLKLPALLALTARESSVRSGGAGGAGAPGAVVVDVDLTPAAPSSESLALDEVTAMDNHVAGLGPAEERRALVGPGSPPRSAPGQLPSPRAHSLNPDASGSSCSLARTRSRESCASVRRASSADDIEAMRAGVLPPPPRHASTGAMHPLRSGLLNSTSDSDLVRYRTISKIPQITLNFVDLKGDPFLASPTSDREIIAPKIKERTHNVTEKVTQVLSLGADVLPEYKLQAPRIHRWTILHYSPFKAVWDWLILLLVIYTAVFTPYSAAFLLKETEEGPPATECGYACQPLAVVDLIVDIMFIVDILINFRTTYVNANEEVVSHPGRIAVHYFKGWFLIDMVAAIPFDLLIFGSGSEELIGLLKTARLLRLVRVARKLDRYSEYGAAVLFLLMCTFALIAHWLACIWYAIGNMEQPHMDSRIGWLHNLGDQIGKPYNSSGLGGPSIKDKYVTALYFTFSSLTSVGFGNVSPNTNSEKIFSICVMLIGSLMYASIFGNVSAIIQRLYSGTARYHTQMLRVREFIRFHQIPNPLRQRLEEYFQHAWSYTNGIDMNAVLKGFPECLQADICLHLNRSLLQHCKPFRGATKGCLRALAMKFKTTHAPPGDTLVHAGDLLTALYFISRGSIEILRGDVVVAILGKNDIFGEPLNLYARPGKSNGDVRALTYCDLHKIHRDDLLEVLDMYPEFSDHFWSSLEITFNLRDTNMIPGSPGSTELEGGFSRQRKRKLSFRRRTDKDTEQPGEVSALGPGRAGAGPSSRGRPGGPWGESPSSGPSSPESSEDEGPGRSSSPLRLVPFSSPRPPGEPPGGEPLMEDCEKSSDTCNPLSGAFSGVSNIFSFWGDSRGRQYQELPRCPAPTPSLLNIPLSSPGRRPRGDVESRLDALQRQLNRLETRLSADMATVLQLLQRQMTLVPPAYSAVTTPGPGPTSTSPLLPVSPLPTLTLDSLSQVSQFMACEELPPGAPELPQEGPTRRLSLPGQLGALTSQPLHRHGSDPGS
Method: Studies were conducted to determine effects on IKr, the rapidly activating delayed rectifier cardiac potassium current in the human heart. […] In this assay system, HERG channel current serves as a surrogate for IKr.

[10] = test system: Beagle dogs; test: Cardiovascular safety study in conscious telemetered dogs; type: in vivo; details: single oral doses 0.5, 1.5 and 5 mg/kg
Method: There were four animals/compound and each animal within the treatment group was exposed to the three doses (plus a empty capsule control), in a dose ramp-up manner with a minimum of 72 hours between doses.

Sequence of M2 (P08172 whole entry): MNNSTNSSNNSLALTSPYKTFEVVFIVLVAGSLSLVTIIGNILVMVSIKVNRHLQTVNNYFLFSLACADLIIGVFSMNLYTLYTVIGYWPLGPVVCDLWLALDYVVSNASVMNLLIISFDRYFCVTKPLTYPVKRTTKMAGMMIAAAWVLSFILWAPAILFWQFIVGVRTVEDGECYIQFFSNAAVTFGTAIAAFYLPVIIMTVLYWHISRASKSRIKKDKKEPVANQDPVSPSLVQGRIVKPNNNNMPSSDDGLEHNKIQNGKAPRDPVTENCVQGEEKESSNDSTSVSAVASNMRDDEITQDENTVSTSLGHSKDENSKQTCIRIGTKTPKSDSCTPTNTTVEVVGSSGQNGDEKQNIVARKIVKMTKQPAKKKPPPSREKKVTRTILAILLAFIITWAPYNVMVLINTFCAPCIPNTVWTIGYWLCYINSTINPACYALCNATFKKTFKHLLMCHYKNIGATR
Sequence of D1 (P21728 whole entry): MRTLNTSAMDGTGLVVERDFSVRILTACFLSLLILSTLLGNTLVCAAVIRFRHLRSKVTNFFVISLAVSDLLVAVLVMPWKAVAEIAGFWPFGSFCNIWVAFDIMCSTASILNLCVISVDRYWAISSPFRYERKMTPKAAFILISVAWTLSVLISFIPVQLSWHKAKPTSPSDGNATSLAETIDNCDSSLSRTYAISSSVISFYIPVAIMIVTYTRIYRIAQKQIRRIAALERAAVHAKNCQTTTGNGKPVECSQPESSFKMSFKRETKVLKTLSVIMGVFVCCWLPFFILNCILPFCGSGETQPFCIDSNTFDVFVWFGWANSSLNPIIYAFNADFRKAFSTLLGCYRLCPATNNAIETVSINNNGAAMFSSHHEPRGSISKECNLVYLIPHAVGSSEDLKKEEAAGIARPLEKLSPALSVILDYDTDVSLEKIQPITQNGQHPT

**Q.** With `CN[C@H]1CC[C@@H](c2ccc(Cl)c(Cl)c2)c2ccccc21` [Sertraline, (1S,4S)-cis 4-(3,4-dichlorophenyl)-1,2,3,4-tetrahydro-N-methyl-1-napthalenamine, reference compound] as the molecule, how does the Ki [1] read?
**A.** 1.6 µM

**Q.** What about the Ki [2] of the same molecule?
**A.** 3.7 µM

**Q.** And the Ki [3]?
**A.** 2 µM

**Q.** And the Ki [4]?
**A.** 2.4 µM

**Q.** And the Ki [5]?
**A.** 8.5 µM

**Q.** And the Ki [6]?
**A.** 5.6 µM

**Q.** And the “Mean Immobility Time (% of Total) ± SEM, Day 2 Study” value ([7]; 2.5 mg/kg i.p.)?
**A.** 86 ± 3 % of Total

**Q.** What about the “Mean Immobility Time (% of Total) ± SEM, Day 4 Study” value ([7]; 2.5 mg/kg i.p., 7 administrations) of the same molecule?
**A.** 78 ± 3 % of Total

**Q.** What about the “Mean Immobility Time (% of Total) ± SEM, Day 2 Study” value ([7]; 5.0 mg/kg i.p.) of the same molecule?
**A.** 77 ± 2 % of Total

**Q.** And the “Mean Immobility Time (% of Total) ± SEM, Day 4 Study” value ([7]; 5.0 mg/kg i.p., 7 administrations)?
**A.** 64 ± 2 % of Total

**Q.** What about the “Mean Immobility Time (% of Total) ± SEM, Day 2 Study” value ([7]; 10.0 mg/kg i.p.) of the same molecule?
**A.** 72 ± 3 % of Total

**Q.** What about the “Mean Immobility Time (% of Total), Day 4 Study” value ([7]; 10.0 mg/kg i.p., 7 administrations, error is std dev (N = 2)) of the same molecule?
**A.** 70 ± 4 % of Total

**Q.** What about the “Total Activity Counts, 71–80 Minutes” value ([8]; 2.5 mg/kg single i.p. dose) of the same molecule?
**A.** 34 ± 9

**Q.** And the “Total Activity Counts, 91–100 Minutes” value ([8]; 2.5 mg/kg single i.p. dose)?
**A.** 25 ± 9

**Q.** And the “Total Activity Counts, 111–120 Minutes” value ([8]; 2.5 mg/kg single i.p. dose)?
**A.** 30 ± 10

**Q.** And the “Total Activity Counts, Total 1st Hour” value ([8]; 2.5 mg/kg single i.p. dose)?
**A.** 559 ± 57^2

**Q.** What about the “Total Activity Counts, Total 2nd Hour” value ([8]; 2.5 mg/kg single i.p. dose) of the same molecule?
**A.** 211 ± 60

**Q.** And the “Total Activity Counts, 71–80 Minutes” value ([8]; 5.0 mg/kg single i.p. dose)?
**A.** 32 ± 11

**Q.** What about the “Total Activity Counts, 91–100 Minutes” value ([8]; 5.0 mg/kg single i.p. dose) of the same molecule?
**A.** 14 ± 9

**Q.** What about the “Total Activity Counts, 111–120 Minutes” value ([8]; 5.0 mg/kg single i.p. dose) of the same molecule?
**A.** 16 ± 11

**Q.** And the “Total Activity Counts, Total 1st Hour” value ([8]; 5.0 mg/kg single i.p. dose)?
**A.** 327 ± 55

**Q.** What about the “Total Activity Counts, Total 2nd Hour” value ([8]; 5.0 mg/kg single i.p. dose) of the same molecule?
**A.** 95 ± 41

**Q.** And the IC50 [9]?
**A.** 1.1 µM

**Q.** And the “effect on heart rate, blood pressure or ECG parameters (including QTc)” value [10]?
**A.** no effect
